According to paper PMC11609934, “Exploration and characterization of the antimalarial activity of cyclopropyl carboxamides that target the mitochondrial protein, cytochrome b” (European Journal of Medicinal Chemistry, 2024):
In brackets after ≈: the same amount, converted by molar mass.

Columns and labels:
[1] = test system: P. berghei ANKA parasites; experiment: P. berghei 4-day mouse model; type: in vivo, Plasmodium berghei; conditions: for % parasitemia / % reduction in parasitemia: mice, day 4, oral gavage q.d. x4, 50 mg/kg (ART 30 mg/kg); for % reduction in parasitemia: versus vehicle control
Protocol: The 4-day P. berghei mouse model is used to determine the preliminary in vivo efficacy of antimalarials at an early stage of optimization. To determine if cyclopropyl carboxamide series could reduce asexual blood stage infection, we evaluated representative compounds WJM280 (108) and analog 109 in the 4-day P. berghei mouse model. In this model, mice were infected P. berghei asexual stage parasites, and then 2 h after the infection, WJM280 (108) and analog 109 at 50 mg/kg and artesunate at 30 mg/kg were administered by oral gavage. The same compound doses were administered again, 24, 48, and 72 h post infection. Parasitemia was then quantified by preparing blood smears and visualizing by microscopy across days 2, 3, and 4. […] The inability of these compounds to reduce parasitemia was attributed to their high metabolic turnover, which is a characteristic that needs improving on further development of the cyclopropyl carboxamide class.
P. berghei 4-day Mouse Model. This model was conducted as previously described.

[2] = Human HepG2 growth inhibition assay (Cell TitreGlo, 48 h); type: cell-based; conditions: human, HepG2 cells, HepG2 cell growth inhibition over 48 h
Method in brief: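 HepG2 cells (1000/well, DMEM + 10% FCS) exposed 48 h at 37 °C, 5% CO2 to compound from 50 μM top concentration in 1:2 dilutions, 0.5% DMSO final. Viability read by Cell Titer Glo, normalised to DMSO and 10 μM bortezomib; EC50 by four-parameter variable-slope fit.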

[3] = eLogD (shake-flask, pH 7.4); type: physicochemical; conditions: 1-octanol/phosphate buffered saline (1:1, v/v), Shake-flask method
Protocol: eLogD. The LogD (pH 7.4) assay was performed using a miniaturized shake flask method. A solution of a pre-saturated mixture of 1-octanol and phosphate buffered saline (PBS) (1:1, v/v) and the test compound (75 μM) was incubated at 25 °C with constant shaking (850 rpm) for 2 h. After incubation the organic and aqueous phases were separated, and samples of each phase transferred to plate for dilution. The organic phase was diluted to 1000-fold and the aqueous phase was diluted 20-fold. The samples were quantitated using LC-MS/MS. The experiment was carried out in duplicate. Propranolol, amitriptyline, and midazolam were used as reference standards.

[4] = Human liver microsome stability; type: in vitro ADME; conditions: pooled human liver microsomes
Protocol: Human Liver Microsome Stability. A solution of the test compounds in phosphate buffer solution (1 μM) was incubated in pooled human liver microsomes (0.5 mg/mL) for 0, 5, 20, 30, 45 and 60 min at 37 °C in the presence and absence of NADPH regeneration system. The reaction was terminated with the addition of ice-cold acetonitrile containing system suitability standard at designated time points. […] The experiment was carried out in duplicate. Verapamil, diltiazem, phenacetin, and imipramine were used as reference standards.

[5] = test system: P. falciparum 3D7 parasites; experiment: P. falciparum 3D7 asexual stage LDH assay (72 h); type: cell-based, Plasmodium falciparum; conditions: Plasmodium falciparum, 3D7, 72 h, LDH activity of P. falciparum 3D7 parasites over 72 h; means and SDs, three or more experiments; read-out: Pf 3D7 EC50 (SD)
Method in brief: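 Asexual P. falciparum 3D7 parasites were grown for 72 h over a 10-point, 3-fold series starting at 1 μM in 0.1% DMSO, with 100 nM chloroquine as negative growth control. After freeze-thaw, parasite LDH was read at 650 nm, and EC50 came from a variable-slope sigmoidal fit.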

[6] = Rat hepatocyte stability; type: in vitro ADME; conditions: pooled rat hepatocytes
Protocol: Rat Hepatocyte Stability. A solution of the test compound in Krebs-Henseliet buffer solution (1 μM) was incubated in pooled rat hepatocytes (1 × 10^6 cells/mL) for 0, 15,30,45, 60, 75 and 90 min at 37 °C (5 % CO2, 95 % relative humidity). The reaction was terminated with the addition of ice-cold acetonitrile containing system suitability standard at designated time points. […] The experiment was carried out in duplicate. Diltiazem, 7-ethoxy coumarin, propranolol, and midazolam were used as reference standards.

[7] = Aqueous solubility (kinetic in PBS, pH 7.4); type: physicochemical; conditions: phosphate buffered saline
Protocol: Solubility. The solubility assay was performed using a miniaturized shake flask method. A solution of phosphate buffered saline (PBS) and the test compound (200 μM) was incubated at 25 °C with constant shaking (600 rpm) for 2 h. The samples were filtered using a multiscreen solubility filter plate. The filtrate was half diluted in acetonitrile. A five-point linearity curve was prepared in PBS:acetonitrile (1:1, v/v) at 200, 150, 75, 25 and 2.5 μM. Blank, linearity and test samples (n = 2) were transferred to a UV readable plate and the plate was scanned for absorbance. Best fit calibration curves were constructed using the calibration standards and used to determine the test sample solubility. The experiment was carried out in duplicate. Diethylstilbestrol, haloperidol, and diclofenac sodium were used as reference standards.

[8] = test system: female gamete; experiment: Dual gamete formation assay, female gametes; type: cell-based; conditions: Plasmodium falciparum; NF54 parasites in a DGFA, 4 replicates
Protocol: (§1) To determine whether the cyclopropyl carboxamide class has transmission blocking potential we profiled selected analogs in a dual gamete formation assay. In this assay, stage V gametocytes are treated with compound, and gametogenesis is induced by the addition of xanthurenic acid. Male gamete viability is determined by an imaging algorithm measuring motile flagellation, while female viability is measured using an antibody to the female-specific Pfs25 surface marker. […] Collectively, the activity observed against male gametes is consistent with activity observed with other cyt b inhibitors.
(§2) Dual Gamete Formation Assay. Compounds were evaluated as previously described as a platform run at both Imperial College London and the London School of Hygiene and Tropical Medicine. Briefly, mature stage V gametocytes were exposed to compounds for 48 h at 37 °C in 384 well plates in gametocyte culture medium (RPMI 1640 supplemented with 25 mM HEPES, 50 μg/mL hypoxanthine, 4.8 g/L NaHCO3, 2 mM L-glutamine, 5 % pooled type AB serum, 0.5 % Albumax II (Gibco)) under a 1 % O2/3 % CO2/96 % N2 environment. Gametogenesis was then triggered by the addition of 10 μL ookinete medium (gametocyte culture medium supplemented with 100 μM xanthurenic acid and 0.27 μg/mL Cy3-labelled anti-Pfs25 antibody) to each well at room temperature. Plates were then cooled on a metal block at 4 °C for 4 min to ensure even cooling and then stabilized for a further 4 min at 28 °C. At 20 min post-induction, male gametogenesis was recorded in each well by automated brightfield microscopy using a × 4 objective lens and 1.5 × magnifier ( × 6 effective magnification). Afterward, plates were incubated in the dark at room temperature for 24 h and then female gametogenesis recorded in each well by automated fluorescence microscopy (anti-Pfs25-positive cells). […] All data was evaluated in comparison to the positive and negative controls to calculate percentage inhibition of male and female gametocytes, and dose response analysis and EC50 calculation performed using GraphPad Prism.

[9] = test system: male gamete; experiment: Dual gamete formation assay, male gametes; type: cell-based; conditions: Plasmodium falciparum; NF54 parasites in a DGFA, 4 replicates
Protocol: as §1, §2

Structure (SMILES) | % parasitemia [1] [%] | % reduction in parasitemia [1] [%] | CC50 at 48 h [2] [nM] | logD at 2 h [3] | microsomal CLint at 1 h, 1 µM [4] [µL/min/mg] | EC50 [5] [nM] | hepatocyte CLint at 1 μM [6] [µL/min/1e6 cells] | solubility at 2 h [7] [µM] | EC50 [8] [nM] | hepatocyte CLint at 1.5 h, 1 µM [6] [µL/min/1e6 cells] | EC50 [9] [nM] | body weights of mice ([1]; 50 mg/kg q.d. oral, 4 days)
C[C@H]1[C@H](OC(=O)CCC(=O)O)O[C@@H]2O[C@@]3(C)CC[C@H]4[C@H](C)CC[C@@H]1[C@@]24OO3 [ART, artesunate, reference compound] | 2.3 | 97.7 | – | – | – | – | – | – | – | – | – | –
CC(c1ccccc1)N(Cc1ccc(C(=O)NC2CC2)cc1)C1CC1 (centres unmarked) [Compound 97, N-Cyclopropyl-4-((cyclopropyl(1-phenylethyl)amino)methyl)benzamide] | – | – | > 40000 | 4.2 | 238 | 170 | > 92 | 22 (≈ 7.36 µg/mL) | – | – | – | –
CCCN(Cc1ccc(C(=O)NC2CC2)cc1)Cc1ccc(C(C)(C)C)cc1 [Compound 107, 4-(((4-(tert-Butyl)benzyl) (propyl)amino)methyl)-N-cyclopropylbenzamide] | – | – | > 40000 | 4.9 | 263 | 20 | – | 10 (≈ 3.79 µg/mL) | 21600 | 92 | 80 | –
CCCN(Cc1ccc(C(=O)NC2CC2)cc1)Cc1cc(C(F)(F)F)cc(C(F)(F)F)c1 [Compound 109, 4-(((3,5-Bis(trifluoromethyl)benzyl) (propyl)amino)methyl)-N-cyclopropylbenzamide] | 91 | 9 | 10000 | 5 | 65 | 30 | – | 2.5 (≈ 1.15 µg/mL) | – | 60 | – | slightly reduced
CCCN(Cc1ccc(C(=O)NC2CC2)cc1)Cc1c(C)cc(C)cc1C [Compound 110, N-Cyclopropyl-4-((propyl(2,4,6-trimethylbenzyl)amino)methyl)benzamide] | – | – | > 40000 | – | – | 80 | – | – | > 25000 | – | 280 | –
